According to publication PMC7714830, “Quantification of the Cannabinoid Type 1 Receptor Availability in the Mouse Brain” (Frontiers in Neuroanatomy, 2020):
Where two headings read alike, the source gives them in different places.

Columns and labels:
CB1 receptor [1] = experiment: [18F]MK-9470 PET in a CB1 receptor knock-out mouse and a wild-type mouse (re-analysis of the whole time course); format: in vivo
Experimental: (§1) Two mice, a CB1 receptor-deficient mouse, and a wild-type mouse, whose data acquisition is described in Miederer et al. ([2013]), were re-analyzed.
(§2) (A) Left: CB1 receptor knock-out mouse, right: wild-type mouse. Positron emission tomography (PET) images were summed from 40 to 60 min [injected radioactivity: 8.5 MBq (CB1^−/−) and 8.0 MBq (CB1^+/+), anaesthesia: 0.2 ml xylazine/ketamine, data acquisition: 60 min]. (B) Standardized volumes-of-interest (VOI) were drawn for the whole mouse brains (n = 2). Extracted radioactivity concentrations were normalized to the maximum radioactivity concentration in the wild-type mouse.

[2] = parameters: method as in Burns et al., 2007; Liu et al., 2007; details: ref Burns et al., 2007, Liu et al.; cited from earlier work
CB1 receptor [3] = details: human brain; ref Burns et al., 2007; cited from earlier work
CB1 receptor [4] = details: cited from earlier work
CB1 receptor [5] = target: T1, CB1 receptor (Mus musculus, UniProt P47746); experiment: [18F]MK-9470 small animal PET of the mouse brain (%ID/ml, 40–60 min); format: in vivo, mouse (C57BL/6J); parameters: Six male C57BL/6J mice; from tissue; host or cells: brain of living male C57BL/6J mice (in vivo PET); details: for [^18F]MK-9470 %ID/ml: PET 40–60 min, mean ± SD
Excerpt: Six male C57BL/6J mice (21.5–28.1 g, 6–9 weeks of age; obtained from the Translational Animal Research Center—TARC of the University Medical Center Mainz) were examined. All applicable international, national, and/or institutional guidelines for the care and use of animals were followed. This study was approved by the respective state authorities (Landesuntersuchungsamt Rheinland-Pfalz).
Isoflurane inhalation anesthesia (2% isoflurane vaporized in 60% oxygen) was used to immobilize the mice, which were positioned in the small animal PET scanner in the headfirst prone position. A venous catheter, which was placed in one of the tail veins, was used to inject [^18F]MK-9470. Together with the injection, a 60-min PET measurement was started with a Focus 120 small animal PET scanner (Siemens/CTI, Knoxville, TN, USA). This small animal PET scanner has lutetium oxyorthosilicate detectors having a size of 1.5 × 1.5 × 10 mm^3 for coincidence detection of photons (time window: 6 ns). The resolution in the center of the field of view is ≤1.4 mm. As part of the quality control, a detector normalization and cross-calibration with a dose calibrator (VDC 404, Veenstra Instruments, Joure, Netherlands) were performed regularly. The PET data acquisition took place in the list mode data format.
The list-mode data, acquired for this study, were sorted into a sinogram matrix with frames of 3 × 20, 3 × 60, 3 × 120, 10 × 300 s (=19 frames). The data were reconstructed with filtered back-projection [ramp filter (cut-off = 0.5)] into a 128 × 128 matrix with 95 slices of 0.8 mm thickness (pixel size 0.87 × 0.87 mm^2). Corrections included detector dead time and random coincidences, which yielded images in the unit Bq/ml.
PET data were co-registered to the T2-weighted magnetic resonance image (MRI) template provided by the PMOD software (version 4.0, Zurich, Switzerland) based on the work of Ma et al. ([2005]) and Mirrione et al. ([2007]). […] The outcome parameter was calculated as %ID/ml = mean value of the radioactivity concentration (in the unit Bq/ml)/injected radioactivity (in the unit Bq) × 100% and included the 40–60 min acquisition interval for individual brain regions. All results were reported as mean ± standard deviation. A two-tailed paired t-test was used to compare means for VOI of different receptor densities and thus, four main comparisons were defined before the analyses: cerebellum vs. pons, caudate putamen vs. pons, cerebellum vs. hippocampus, and hippocampus vs. pons. The global significance level was αglobal = 0.05 and a Bonferroni correction yielded a local significance level of αlocal = 0.0125.
To facilitate the comparison between (quantitative, continuous) PET data and (qualitative) IHC data, the data were classified into four categories, namely no (−), low (+), mean (++) and high (+++) accumulation of the radioactivity concentration or immunohistochemical staining. The IHC data were classified based on visual inspections of the results and their descriptions in the literature sources. Statements such as “little or no,” “few” or “void” led to a classification of “–.” Statements like “low,” “some” or “weak” were classified as “+.” Descriptions like “network of CB1-immunoreactive fibers” or “intensely CB1 receptor-ir fiber meshwork” led to a rating of “++” and statements like “dense meshwork of fibers” or “very high concentration of CB1-immunoreactivity” were rated as “+++.” The PET data were classified based on the outcome parameter %ID/ml, ranging from mean values of 1.5–2.6 %ID/ml, and were subdivided into three categories. That is, signals within the interval 1.5–1.8 %ID/ml lead to a rating of “+.” Parameters within the interval 1.8–2.2 %ID/ml were rated as “++” and signals within the interval 2.2–2.6 %ID/ml were classified as “+++.” As there was no brain region devoid of a PET signal, the category “−” was omitted here.

CB1 receptor [6] = target: T1, CB1 receptor; experiment: [18F]MK-9470 PET in a CB1 receptor knock-out mouse and a wild-type mouse (re-analysis of the whole time course); format: in vivo; parameters: Two mice, a CB1 receptor-deficient mouse, and a wild-type mouse; from tissue; host or cells: brain of a living wild-type mouse; the CB1-/- mouse serves as the receptor-free control; details: CB1 knock-out vs wild-type mouse
Experimental: as §1, §2

CB1 receptor [7] = target: CB1 receptor; parameters: method as in Burns et al., 2007; Liu et al., 2007; details: ref Burns et al., 2007, Liu et al., read-out: affinity to the CB1 receptor, IC50; cited from earlier work
CB1 receptor [8] = test system: CB1 receptor; parameters: method as in Herance et al., 2011; details: knock-out n = 4, wild-type n = 4; period 40–60 min; ref Herance et al., 2011; cited from earlier work
CB1 receptor [9] = test system: CB1 receptor; parameters: method as in Horti et al., 2006; details: ref Horti et al., 2006; cited from earlier work
[10] = Tectum mesencephalic: colliculus inferior
[11] = Tectum mesencephalic: colliculus superior

T1 sequence (P47746 whole entry): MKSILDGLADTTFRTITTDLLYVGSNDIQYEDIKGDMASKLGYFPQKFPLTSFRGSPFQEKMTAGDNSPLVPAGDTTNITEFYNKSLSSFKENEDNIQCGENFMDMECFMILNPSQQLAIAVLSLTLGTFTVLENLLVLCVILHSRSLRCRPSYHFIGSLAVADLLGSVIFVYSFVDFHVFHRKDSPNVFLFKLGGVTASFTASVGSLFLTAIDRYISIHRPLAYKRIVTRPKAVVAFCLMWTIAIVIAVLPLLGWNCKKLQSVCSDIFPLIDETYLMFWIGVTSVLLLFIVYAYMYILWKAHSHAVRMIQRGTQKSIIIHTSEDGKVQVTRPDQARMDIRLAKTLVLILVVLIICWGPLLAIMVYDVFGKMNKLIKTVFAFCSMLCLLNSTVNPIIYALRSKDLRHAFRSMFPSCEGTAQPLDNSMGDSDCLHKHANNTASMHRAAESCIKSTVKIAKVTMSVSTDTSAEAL

For Cc1ccc(OC(C)(C)C(=O)N[C@@H](C)[C@@H](Cc2ccc(OCC[18F])cc2)c2cccc(C#N)c2)nc1 [[^18F]MK-9470, N-(1S,2S)-2–(3-cyanophenyl)-3–[4-(2-[^18F]fluoroethoxy)phenyl]-1-methylpropyl-2-methyl-2-[(5-methylpyridin-2-yl)oxy]propanamide], the “level of the unspecific signal in the CB1 receptor knock-out mouse, of the maximum signal measured in the wild-type mice” value (CB1 receptor [1]; whole brain VOI, n = 2) is given as “about 20%”, the “unspecific binding, of the signal present in a wild-type mouse” value (CB1 receptor [1]; whole brain, period of 40–60 min) is given as “approximately 20%” and the “lipophilicity, logD7.3” value [2] is given as 4.7. For the same molecule, the “time to plateau after injection” value (CB1 receptor [3]) was “approximately 120 min”, the “time to plateau after injection” value (CB1 receptor [4]; rat brain, ref Casteels et al., 2012) was “approximately 300 min” and the “portion of the signal allocated to unspecific binding” value (CB1 receptor [4]; rats, receptor blocking with rimonabant before PET, ref Miederer et al., 2013) was 58%. For the same molecule, the “Category of [^18F]MK-9470 accumulation” value (CB1 receptor [5]; Amygdala) was “++ (Parameters within the interval 1.8–2.2 %ID/ml were rated as “++”)”, the “[^18F]MK-9470 %ID/ml” value (CB1 receptor [5]; Amygdala) was 1.87 ± 0.38 %ID/ml and the “Category of [^18F]MK-9470 accumulation” value (CB1 receptor [5]; Basal forebrain septum) was “++ (Parameters within the interval 1.8–2.2 %ID/ml were rated as “++”)”. The “[^18F]MK-9470 %ID/ml” value (CB1 receptor [5]; Basal forebrain septum) was 2.07 ± 0.29 %ID/ml, the “Category of [^18F]MK-9470 accumulation” value (CB1 receptor [5]; Basal ganglia: caudate putamen) was “+++ (signals within the interval 2.2–2.6 %ID/ml were classified as “+++.”)” and the “[^18F]MK-9470 %ID/ml” value (CB1 receptor [5]; Basal ganglia: caudate putamen) was 2.33 ± 0.40 %ID/ml. For the same molecule, the “Category of [^18F]MK-9470 accumulation” value (CB1 receptor [5]; Brain stem) was “++ (Parameters within the interval 1.8–2.2 %ID/ml were rated as “++”)”, the “[^18F]MK-9470 %ID/ml” value (CB1 receptor [5]; Brain stem) was 1.95 ± 0.36 %ID/ml and the “Category of [^18F]MK-9470 accumulation” value (CB1 receptor [5]; Cerebellum (whole region)) was “++ (Parameters within the interval 1.8–2.2 %ID/ml were rated as “++”)”. For the same molecule, the “[^18F]MK-9470 %ID/ml” value (CB1 receptor [5]; Cerebellum (whole region)) was 2.11 ± 0.40 %ID/ml, the “Category of [^18F]MK-9470 accumulation” value (CB1 receptor [5]; Cerebral cortex) was “++ (Parameters within the interval 1.8–2.2 %ID/ml were rated as “++”)” and the “[^18F]MK-9470 %ID/ml” value (CB1 receptor [5]; Cerebral cortex) was 1.92 ± 0.32 %ID/ml. For the same molecule, the “Category of [^18F]MK-9470 accumulation” value (CB1 receptor [5]; Hippocampus) was “+++ (signals within the interval 2.2–2.6 %ID/ml were classified as “+++.”)”, the “[^18F]MK-9470 %ID/ml” value (CB1 receptor [5]; Hippocampus) was 2.29 ± 0.41 %ID/ml and the “Category of [^18F]MK-9470 accumulation” value (CB1 receptor [5]; Hypothalamus) was “++ (Parameters within the interval 1.8–2.2 %ID/ml were rated as “++”)”. For the same molecule, the “[^18F]MK-9470 %ID/ml” value (CB1 receptor [5]; Hypothalamus) was 1.99 ± 0.34 %ID/ml, the “Category of [^18F]MK-9470 accumulation” value (CB1 receptor [5]; Mesencephalon (whole region)) was “+++ (signals within the interval 2.2–2.6 %ID/ml were classified as “+++.”)” and the “[^18F]MK-9470 %ID/ml” value (CB1 receptor [5]; Mesencephalon (whole region)) was 2.41 ± 0.42 %ID/ml. The “Category of [^18F]MK-9470 accumulation” value (CB1 receptor [5]; Olfactory bulb) was “+ (signals within the interval 1.5–1.8 %ID/ml lead to a rating of “+.”)”, the “[^18F]MK-9470 %ID/ml” value (CB1 receptor [5]; Olfactory bulb) was 1.47 ± 0.08 %ID/ml and the “Category of [^18F]MK-9470 accumulation” value (CB1 receptor [5]; Substantia grisea centralis) was “+++ (signals within the interval 2.2–2.6 %ID/ml were classified as “+++.”)”. For the same molecule, the “[^18F]MK-9470 %ID/ml” value (CB1 receptor [5]; Substantia grisea centralis (central gray)) was 2.56 ± 0.39 %ID/ml, the “Category of [^18F]MK-9470 accumulation” value (CB1 receptor [5]; [10]) was “+++ (signals within the interval 2.2–2.6 %ID/ml were classified as “+++.”)” and the “[^18F]MK-9470 %ID/ml” value (CB1 receptor [5]; [10]) was 2.48 ± 0.35 %ID/ml. For the same molecule, the “Category of [^18F]MK-9470 accumulation” value (CB1 receptor [5]; [11]) was “+++ (signals within the interval 2.2–2.6 %ID/ml were classified as “+++.”)”, the “[^18F]MK-9470 %ID/ml” value (CB1 receptor [5]; [11]) was 2.44 ± 0.37 %ID/ml and the “Category of [^18F]MK-9470 accumulation” value (CB1 receptor [5]; Thalamus) was “+++ (signals within the interval 2.2–2.6 %ID/ml were classified as “+++.”)”. For the same molecule, the “[^18F]MK-9470 %ID/ml” value (CB1 receptor [5]; Thalamus) was 2.34 ± 0.35 %ID/ml, the “Category of [^18F]MK-9470 accumulation” value (CB1 receptor [5]; Whole-brain) was “++ (Parameters within the interval 1.8–2.2 %ID/ml were rated as “++”)” and the “[^18F]MK-9470 %ID/ml” value (CB1 receptor [5]; Whole-brain) was 2.19 ± 0.35 %ID/ml. For the same molecule, the “range of mean values of %ID/ml over brain regions” value (CB1 receptor [5]; all brain regions, 40–60 min) was 1.5–2.6 %ID/ml, the “coefficients of variation for all brain regions” value (CB1 receptor [5]; summed images 40–60 min) was 5–20% and the “kinetics in the mouse brain” value (CB1 receptor [5]; whole brain time course, 60 min) was “slow kinetics”. For the same molecule, the “time of uptake into the mouse brain after injection” value (CB1 receptor [5]; whole brain, i.v. tail vein) was no more than 5 min, the “coefficient of variation of whole-brain radioactivity concentration” value (CB1 receptor [5]; whole brain, interval from maximum to end of acquisition) was “approximately 12%” and the “mean value of radioactivity concentration after reaching maximum” value (CB1 receptor [5]; whole mouse brain, from maximum until the end of the acquisition (60 min)) was “approximately 2.2 %ID/ml”. For the same molecule, the “binding to CB1 receptors in the mouse brain” value (CB1 receptor [6]) was “binds specifically”.

In the case of Cc1ccc(OC(C)(C)C(=O)N[C@@H](C)[C@@H](Cc2ccc(OCCF)cc2)c2cccc(C#N)c2)nc1 [[^18F]MK-9470, N-(1S,2S)-2–(3-cyanophenyl)-3–[4-(2-[^18F]fluoroethoxy)phenyl]-1-methylpropyl-2-methyl-2-[(5-methylpyridin-2-yl)oxy]propanamide], the IC50 (CB1 receptor [7]) is given as 0.7 nM.

For [11CH3]Oc1ccc(-c2c(C#N)c(C(=O)NN3CCCCC3)nn2-c2ccc(Cl)cc2Cl)cc1 [[^11C]OMAR, 1–(2,4-dichlorophenyl)-4-cyano-5–(4-[^11C]methoxyphenyl)-N-(piperidin-1-yl)-1H-pyrazole-3-carboxamide], the “lower uptake in knock-out mice as compared to wild-type mice” value (CB1 receptor [8]) is given as 50% and the “%ID/ml values in mouse brain regions” value (CB1 receptor [9]) is given as 2.5–6 %ID/ml.
